# Values joined by “and” are separate entries in the source; they are usually repeats but may differ in a detail not shown here. Equal entries are not always repeated.
# Assays:
# NHDF cells = experiment: Skin type I collagen synthesis promoting assay (ELISA, with MTT); format: cell-based, human; details: fold of control
# Protocol: The assay for measuring the promotion of skin collagen synthesis was described by Kishikawa et al.. Adult NHDF cells (Lonza, Tokyo) were routinely maintained in 10% FBS and 1% antibiotic-antimycotic (Invitrogen) in Dulbecco’s modified Eagle’s medium (DMEM, Wako). After growing to confluence, cells at a density of 5 × 10^3 cells/well were seeded on 96-well plates for 24 h before the treatment. The medium was replaced with a mixture of 1 μL of sample solution (DMSO < 0.5% per well) and 99 μL of DMEM supplemented with 0.5% FBS. After 72 h of cultivation, the amount of collagen in the medium was measured using a human type I collagen enzyme-linked immunosorbent assay (ELISA) kit (ACEL, Kanagawa, Japan). The amount of collagen production was calculated using a standard curve prepared by measurement by the same ELISA. The cells remaining in the 96-well plate were subjected to an MTT assay. Ascorbic acid (100 μM, Wako) was used as a positive control.
# B16 melanoma cells [1] = experiment: Anti-melanogenesis assay (melanin content); format: cell-based, mouse; details: for Inhibition rate (100% − melanin synthesis): B16 cells; for IC50 melanin / IC50: B16 melanoma cells; for IC50: read-out: IC50 (melanin synthesis)
# Protocol: (§1) This assay was performed as described by Arung et al.. The mouse melanoma cell line B16 was obtained from the Riken Bioresource Center Cell Bank (Tsukuba, Japan). The B16 melanoma cells were maintained in Eagle’s Minimal Essential Medium (EMEM, Nissui Chemical, Tokyo) supplemented with 10% (v/v) fetal bovine serum (FBS; Gibco, Carlsbad, CA, USA) and 0.09 mg/mL theophylline (Sigma-Aldrich, St. Louis, MO, USA). […] After 24 h, test samples were dissolved in DMSO (<0.2% per well) and sample solution were added to each well. Arbutin (Tokyo Kasei Kogyo, Tokyo) was used as a positive control. The cells were incubated for an additional 48 h, and then the medium was replaced with fresh medium containing each sample again. After 24 h, the melanin content and the cell viability were measured using a microplate reader (BioTek-ELX800, BioTek Instruments, Winooski, VT, USA) at 405 nm and 570 nm, respectively. Cell viability was measured using the MTT (3-(4,5-dimethylthiazol-2-yl)-2,5-diphenyltetrazolium bromide) method.
# B16 melanoma cells [2] = experiment: Cell viability of B16 melanoma cells (MTT); details: for Inhibition rate (100% − cell viability): B16 cells; for CC50 cell viability / CC50: B16 melanoma cells, MTT; for CC50: read-out: CC50 (cell viability)
# Protocol: as §1
# RBL-2H3 cells [3] = experiment: Cell viability of RBL-2H3 cells (parallel MTT); format: cell-based, rat; details: 25 μg/ml, RBL-2H3 cells
# Protocol: (§2) The anti-allergy assay was based mostly on the methods described by Zhu et al. and Yun et al. with slight modification. Rat basophilic leukemia (RBL-2H3) cells were obtained from the Riken Bio-resource Center Cell Bank (Tsukuba, Japan). RBL-2H3 cells were incubated in EMEM medium containing 10% FBS and 1% antibiotics–antimycotics at 37 °C. The cells were seeded on a 96-well plate (2 × 10^5 cells/well). After 24 h of incubation, the medium was supplemented with 0.5 μg/mL anti-DNP (dinitrophenol) mouse immunoglobulin E (IgE) (Sigma-Aldrich). After an additional 24 h of incubation, the medium was replaced with 100 μL of Tyrode buffer. The sample dissolved in DMSO (<0.5% per well) was added, and the cell plate was incubated again for 30 min, then replaced with 100 μL of tyrode buffer containing 50 μg/mL DNP-bovine serum albumin (BSA) (Invitrogen, Carlsbad, CA, USA). After 1 h of incubation, 50 μL of the supernatant was collected from each well and mixed with 50 μL of substrate solution (p-nitrophenyl-N-acetyl-β-glucosaminide, 2 mM; Sigma-Aldrich) in a new 96-well plate. The mixture was incubated at room temperature on a shaker for 3 h. Finally, 100 μL of stop solution was added, and the absorbance was read at 405 nm. A parallel MTT experiment was performed to measure the cell viability. The MTT experiment was done exactly as described.
# Propionibacterium acnes = experiment: Anti-bacterial assay (growth inhibition, MIC/MBC by broth microdilution); format: cell-based; details: for Inhibition Rate (P. acnes growth): concentration 100 μg/mL; for activity against P. acnes (in words): at their maximum solubility
# Protocol: The antibacterial assay was based mostly on the methods described by Tanaka et al. with slight modification. Propionibacterium acne (NBRC 107605) was used for the antibacterial assay. A single colony of the test strain was taken and 5 mL of Gifu anaerobic medium (GAM) broth (Nissui, Tokyo) was added to it. This culture was incubated at 37 °C for 30 h. It was then added to the bacterial suspension to prepare a bacterial concentration at 10^5 CFU/mL. The bacterial solution was used for the subsequent antibacterial assay. Each compound was dissolved in DMSO, and benzalkonium chloride (Wako) was used as a positive control. The plate was incubated at 37 °C for 30 h. Finally, bacterial growth was measured by a microplate reader at 630 nm. The MIC and MBC were evaluated by the standard broth microdilution method.
# RBL-2H3 cells [4] = experiment: β-hexosaminidase release from IgE-stimulated RBL-2H3 mast cells; format: cell-based, rat; details: 25 μg/mL
# Protocol: as §2
Compound,IC50 melanin (B16 melanoma cells [1]) [mg/L],IC50 (B16 melanoma cells [1]) [µM],CP/CV value (collagen production %/cell viability %) (NHDF cells; 5 μg/mL),Inhibition rate (100% − melanin synthesis) (B16 melanoma cells [1]; 1 μg/ml) [%],Inhibition rate (100% − melanin synthesis) (B16 melanoma cells [1]; 2.5 μg/ml) [%],Inhibition rate (100% − melanin synthesis) (B16 melanoma cells [1]; 5 μg/ml) [%],Inhibition rate (100% − melanin synthesis) (B16 melanoma cells [1]; 10 μg/ml) [%],Inhibition rate (100% − cell viability) (B16 melanoma cells [2]; 1 μg/ml) [%],Inhibition rate (100% − cell viability) (B16 melanoma cells [2]; 2.5 μg/ml) [%],Inhibition rate (100% − cell viability) (B16 melanoma cells [2]; 5 μg/ml) [%],Inhibition rate (100% − cell viability) (B16 melanoma cells [2]; 10 μg/ml) [%],CC50 cell viability (B16 melanoma cells [2]) [mg/L],CC50 (B16 melanoma cells [2]) [µM],Cell viability (RBL-2H3 cells [3]) [%],Inhibition Rate (P. acnes growth) (Propionibacterium acnes),Inhibition Rate (β-hexosaminidase release) (RBL-2H3 cells [4]) [%],CP/CV value (collagen production %/cell viability %) (NHDF cells; 10 μg/mL),activity against P. acnes (in words) (Propionibacterium acnes),CP/CV value (collagen production %/cell viability %) (NHDF cells; 1 μg/mL),further results
"COC(=O)[C@]12CC[C@@H](C)[C@H](C)[C@H]1C1=CC[C@@H]3[C@@]4(C)C[C@@H](O)[C@H](O)C(C)(C)[C@@H]4CC[C@@]3(C)[C@]1(C)CC2 [Compound 6, methyl corosolate]",7.8,16.1,2.4,0.0 ± 1.9,2.8 ± 4.5,32.7 ± 1.5,63.5 ± 2.7,4.5 ± 13.7,10.5 ± 10.9,15.4 ± 5.1,59.4 ± 7.0,9.1,18.7,97.6 ± 14.1,77.9 ± 1.6%,2.4 ± 14.1,3.4 and 3.6,active,,
"C[C@H]1[C@H](C)CC[C@]2(C(=O)O)CC[C@]3(C)C(=CC[C@@H]4[C@@]5(C)CCC(=O)C(C)(C)[C@@H]5CC[C@]43C)[C@H]12 [Compound 13, 3-oxours-12-en-28-oic acid]",8.1,18,1.2,41.0 ± 2.1,39.7 ± 0.6,45.5 ± 2.7,52.9 ± 0.6,39.1 ± 2.6,42.7 ± 2.1,51.5 ± 3.7,80.3 ± 3.0,4.0,8.9,85.6 ± 4.2,– (no inhibition),,1.4,,1.2,Inhibition rate (100% − melanin synthesis) (B16 melanoma cells [1]; 0.5 μg/ml): 37.4 ± 1.1%
"C[C@@H]1CC[C@]2(C(=O)O)CC[C@]3(C)C(=CC[C@@H]4[C@@]5(C)C[C@@H](O)C(=O)C(C)(C)[C@@H]5CC[C@]43C)[C@@H]2[C@]1(C)O [Compound 15, 2α, 19α-dihydroxy-3-oxo-12-ursen-28-oic acid]",> 20.0,> 42.3,1.1,,,,24.2 ± 1.0,,,5.6 ± 4.6,11.4 ± 3.9,> 20.0,> 42.3,102.1 ± 2.2,– (no inhibition),0.9 ± 0.0,,,,Inhibition rate (100% − cell viability) (B16 melanoma cells [2]; 20 μg/ml): 26.4 ± 1.4%

# Further lines, with some results ahead:
IC50 melanin (B16 melanoma cells [1]) [mg/L],IC50 (B16 melanoma cells [1]) [µM],Compound,CP/CV value (collagen production %/cell viability %) (NHDF cells; 5 μg/mL),Inhibition rate (100% − melanin synthesis) (B16 melanoma cells [1]; 1 μg/ml) [%],Inhibition rate (100% − melanin synthesis) (B16 melanoma cells [1]; 2.5 μg/ml) [%],Inhibition rate (100% − melanin synthesis) (B16 melanoma cells [1]; 5 μg/ml) [%],Inhibition rate (100% − melanin synthesis) (B16 melanoma cells [1]; 10 μg/ml) [%],Inhibition rate (100% − cell viability) (B16 melanoma cells [2]; 1 μg/ml) [%],Inhibition rate (100% − cell viability) (B16 melanoma cells [2]; 2.5 μg/ml) [%],Inhibition rate (100% − cell viability) (B16 melanoma cells [2]; 5 μg/ml) [%],Inhibition rate (100% − cell viability) (B16 melanoma cells [2]; 10 μg/ml) [%],CC50 cell viability (B16 melanoma cells [2]) [mg/L],CC50 (B16 melanoma cells [2]) [µM],Cell viability (RBL-2H3 cells [3]) [%],Inhibition Rate (P. acnes growth) (Propionibacterium acnes),Inhibition Rate (β-hexosaminidase release) (RBL-2H3 cells [4]) [%],CP/CV value (collagen production %/cell viability %) (NHDF cells; 10 μg/mL),activity against P. acnes (in words) (Propionibacterium acnes),CP/CV value (collagen production %/cell viability %) (NHDF cells; 1 μg/mL),further results
6.2,12.8,"COC(=O)[C@]12CCC(C)(C)C[C@@H]1C1=CC[C@@H]3[C@@]4(C)C[C@@H](O)[C@H](O)C(C)(C)C4CC[C@@]3(C)[C@]1(C)CC2 (stereo partly shown) [Compound 5, Methyl maslinate]",1.2,0.0 ± 4.4,1.6 ± 0.6,44.8 ± 4.3,68.2 ± 0.6,4.7 ± 8.1,1.3 ± 5.2,12.1 ± 8.6,75.9 ± 0.5,8.4,17.5,105.8 ± 1.1,– (no inhibition),8.5 ± 9.5,,,,
7.2,14.8,"C[C@@H]1CC[C@]2(C(=O)O)CC[C@]3(C)C(=CC[C@@H]4[C@@]5(C)CCC(=O)C(C)(C)[C@@H]5[C@H](O)C[C@]43C)[C@@H]2[C@]1(C)O [Compound 14, 6β,19-dihydroxyurs-12-en-3-oxo-28-oic acid]",1.4,6.9 ± 1.8,15.8 ± 1.8,39.5 ± 3.1,67.3 ± 1.4,2.5 ± 8.3,1.2 ± 9.7,44.1 ± 0.4,69.1 ± 10.0,5.3,10.9,66.8 ±11.1,87.6 ± 7.4%,,1.1,active,1.2,

# From paper PMC5454942, “The Potential of Triterpenoids from Loquat Leaves (Eriobotrya japonica) for Prevention and Treatment of Skin Disorder” (International Journal of Molecular Sciences, 2017)
